These compounds were tested against T1, Tau K18 fragment (amino acids 244 to 372 of human Tau441) aggregates (Homo sapiens, UniProt P10636) (assay: Tau K18 disaggregation assay by ThT). Conditions: 2 μM K18 aggregates, 30 minutes at RT, ThT fluorescence.
T1 construct: encompassing amino acids 244 to 372 of the longest isoform (2N4R) of human Tau441; host or cells: bacteria
T1 sequence (P10636 561-689): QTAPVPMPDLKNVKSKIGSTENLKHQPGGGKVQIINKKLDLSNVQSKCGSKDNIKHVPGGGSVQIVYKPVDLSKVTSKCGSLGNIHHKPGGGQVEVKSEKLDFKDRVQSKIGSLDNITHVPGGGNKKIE
Format: biochemical
Protocol: Tau K18 Disaggregation Assay by ThT
Compounds were dissolved in anhydrous dimethyl sulfoxide (DMSO, Sigma-Aldrich) to reach a concentration of 10 mM. K18 aggregates and serial dilutions of compounds were mixed together in PBS (volume 50 μL) to a final concentration of 2 μM of K18 aggregates and from 160 to 0.04 μM of compounds. The mixture was incubated for 30 minutes at room temperature (RT), then 40 μL of this mixture were transferred into a black 384-well plate assay (Perkin-Elmer) and mixed with 10 μL of 100 μM ThT in 250 mM glycine (both from Sigma-Aldrich) in PBS. Fluorescence (relative fluorescence units; RFU) was measured in monoplicate or duplicate on a Tecan reader (excitation: 440 nm; emission: 485 nm). Percentage of K18 disaggregation was then calculated and half maximal effective concentration (EC50) was determined using GraphPad Prism version 5 (GraphPad Software) assuming a one-binding site fitting model.
Compound `Fc1ccc2[nH]c3c(c2c1)CN(c1ccc2nc(N4CCOCC4)ccc2c1)CC3` [Example 113] has an EC50 of less than 10 µM.
Compound `Fc1ccc2c3c([nH]c2c1)CCN(c1nc2ccc(N4CCOCC4)cc2o1)C3` [Example 109] has an EC50 of less than 10 µM.
`Cc1cccc2c3c([nH]c12)CCN(c1ccc2oc(N4CCOCC4)nc2c1)C3` [Example 137] was tested, and the EC50 was less than 10 µM.
Work on `Cn1c2c(c3cc(F)ccc31)CN(c1cncc(C(F)(F)F)c1)CC2` [Example 96d] yielded an EC50 of less than 10 µM.
`COc1ccc2c3c([nH]c2c1)CCN(c1ccc2oc(N4CCOCC4)nc2c1)C3` [Example 133] was tested, and the EC50 was less than 10 µM.
`Fc1ccc2c3c([nH]c2c1)CCN(c1cnc(N2CCOCC2)cn1)C3` [Example 103] showed an EC50 of less than 10 µM.
In the case of `N#Cc1ccc(N2CCc3[nH]c4cc(F)ccc4c3C2)nc1` [Example 121], the EC50 is reported as less than 10 µM.
`Fc1cccc2[nH]c3c(c12)CN(c1ccc(N2CCOCC2)nc1)CC3` [Example 81] showed an EC50 of 10 to 25 µM.
Compound `Fc1ccc2[nH]c3c(c2c1)CN(c1ccc2nc(N4CCOCC4)sc2n1)CC3` [Example 72] has an EC50 of less than 10 µM.
For `Fc1ccc2[nH]c3c(c2c1)CN(c1ccc2ccc(N4CCOCC4)nc2c1)CC3` [Example 114], the EC50 was 10 to 25 µM.
Compound `Fc1ccc2c3c([nH]c2c1)CCN(c1ccc2oc(N4CCOC5(CCC5)C4)nc2c1)C3` [Example 125] has an EC50 of less than 10 µM.
Work on `C[C@H]1CN(c2nc3cc(N4CCc5[nH]c6cc(F)ccc6c5C4)ccc3o2)CCO1` [Example 128] yielded an EC50 of less than 10 µM.
`COc1cccc2c3c([nH]c12)CCN(c1ccc2oc(N4CCOCC4)nc2c1)C3` [Example 127] showed an EC50 of less than 10 µM.
In the case of `C[C@@H]1CN(c2nc3cc(N4CCc5[nH]c6cc(F)ccc6c5C4)ccc3o2)CCO1` [Example 130], the EC50 is reported as less than 10 µM.
Compound `Fc1ccc2c3c([nH]c2c1)CCN(c1ccc2cc(N4CCOCC4)ncc2c1)C3` [Example 122] has an EC50 of less than 10 µM.
`Cn1c2c(c3cc(F)ccc31)CN(c1ccc3nc(N4CCOCC4)oc3c1)CC2` [Example 15] showed an EC50 of 25 to 50 µM.
For `Fc1ccc2c3c([nH]c2c1)CCN(c1ccc2nc(N4CCOCC4)sc2n1)C3` [Example 88], the EC50 was less than 10 µM.
With `Cn1c2c(c3cc(F)ccc31)CN(c1ccc(F)cn1)CC2` [Example 96e] the EC50 was 25 to 50 µM.
With `Fc1ccc2c3c([nH]c2c1)CCN(c1nc2cc(N4CCOCC4)ccc2s1)C3` [Example 107] the EC50 was less than 10 µM.
With `CNc1nc2ccc(N3CCc4[nH]c5ccc(F)cc5c4C3)cc2o1` [Example 98] the EC50 was less than 10 µM.
In the case of `Fc1ccc2c3c([nH]c2c1)CCN(c1ccc2nc(N4CCOCC4)ccc2n1)C3` [Example 105b], the EC50 is reported as less than 10 µM.
Work on `C[C@@H]1COCCN1c1nc2cc(N3CCc4[nH]c5cc(F)ccc5c4C3)ccc2o1` [Example 126] yielded an EC50 of less than 10 µM.
With `C[C@@H]1CN(c2nc3cc(N4CCc5[nH]c6cc(F)ccc6c5C4)ccc3o2)C[C@H](C)O1` [Example 142] the EC50 was less than 10 µM.
`Cn1c2c(c3cc(F)ccc31)CN(c1ccc3cc(O)ccc3n1)CC2` [Example 150] gave an EC50 of less than 10 µM.
With `Fc1ccc2c3c([nH]c2c1)CCN(c1ccc2ccc(N4CCOCC4)nc2c1)C3` [Example 91] the EC50 was 10 to 25 µM.
In the case of `Cn1c2c(c3ccccc31)CN(c1ccc3oc(N4CCOCC4)nc3c1)CC2` [Example 144], the EC50 is reported as less than 10 µM.
Work on `Fc1ccc2[nH]c3c(c2c1)CN(c1ncc2nc(N4CCOCC4)sc2n1)CC3` [Example 104] yielded an EC50 of less than 10 µM.
`Cn1c2c(c3c(F)cccc31)CN(c1ccc(N3CCOCC3)nc1)CC2` [Example 83] gave an EC50 of less than 10 µM.
Compound `COc1cccc(N2CCc3[nH]c4cc(F)ccc4c3C2)n1` [Example 138] has an EC50 of less than 10 µM.
`Fc1ccc2[nH]c3c(c2c1)CN(c1ccc(N2CCOCC2)cn1)CC3` [Example 76] showed an EC50 of less than 10 µM.
With `Fc1ccc2c3c([nH]c2c1)CCN(c1cc2sc(N4CCOCC4)nc2cn1)C3` [Example 89, 4-(6-(7-fluoro-1,3,4,5-tetrahydro-2H-pyrido[4,3-b]indol-2-yl)thiazolo[4,5-c]pyridin-2-yl)morpholine] the EC50 was less than 10 µM.
Work on `Fc1ccc2[nH]c3c(c2c1)CN(c1ccnc(N2CCOCC2)n1)CC3` [Example 99] yielded an EC50 of 25 to 50 µM.
`Fc1ccc2c3c([nH]c2c1)CCN(c1cc2ccc(N4CCOCC4)nc2cn1)C3` [Example 110] showed an EC50 of less than 10 µM.
`COc1ccc(N2CCc3[nH]c4cc(F)ccc4c3C2)nc1` [Example 141] was tested, and the EC50 was 10 to 25 µM.
Work on `Fc1ccc2[nH]c3c(c2c1)CN(c1ccc(N2CCOCC2)nn1)CC3` [Example 97] yielded an EC50 of less than 10 µM.
`Cn1c2c(c3cc(F)ccc31)CN(c1ccc(OCCO)cc1)CC2` [Example 149] gave an EC50 of less than 10 µM.
In the case of `Fc1ccc2c3c([nH]c2c1)CCN(c1ccc(N2CCOCC2)nn1)C3` [Example 101], the EC50 is reported as less than 10 µM.
`Fc1ccc2c3c([nH]c2c1)CCN(c1nc2ccc(N4CCOCC4)cc2s1)C3` [Example 108] gave an EC50 of less than 10 µM.
Work on `Cn1c2c(c3ccc(F)cc31)CN(c1ccc(N3CCOCC3)nc1)CC2` [Example 87] yielded an EC50 of less than 10 µM.
For `COc1ccc2nc(N3CCc4c(c5cc(F)ccc5n4C)C3)ccc2c1` [Example 93], the EC50 was less than 10 µM.
`Fc1ccc2c3c([nH]c2c1)CCN(c1nc2cc(N4CCOCC4)ccc2o1)C3` [Example 106] gave an EC50 of less than 10 µM.
`Cn1c2c(c3cc(F)ccc31)CN(c1ccc(N3CCOCC3)cc1)CC2` [Example 96] showed an EC50 of less than 10 µM.
For `Fc1ccc2c3c([nH]c2c1)CCN(c1ccc2nc(N4CCOCC4)ccc2c1)C3` [Example 92], the EC50 was less than 10 µM.
`Fc1ccc2c3c([nH]c2c1)CCN(c1ccc(N2CCOCC2)cc1)C3` [Example 117] gave an EC50 of less than 10 µM.
`Fc1cccc2c3c([nH]c12)CCN(c1ccc2oc(N4CCOCC4)nc2c1)C3` [Example 111] gave an EC50 of less than 10 µM.
Work on `Cn1c2c(c3ccc(F)cc31)CN(c1ccc(N3CCOCC3)cn1)CC2` [Example 80] yielded an EC50 of less than 10 µM.
With `CN(C)c1nc2cc(N3CCc4c(c5cc(F)cnc5n4C)C3)ccc2o1` [Example 38] the EC50 was less than 10 µM.
`CN1CCN(c2nc3cc(N4CCc5[nH]c6cc(F)ccc6c5C4)ccc3o2)CC1` [Example 145] gave an EC50 of less than 10 µM.
`Cn1c2c(c3cc(F)ccc31)CN(c1ccc3nc(N4CCOCC4)sc3c1)CC2` [Example 1] gave an EC50 of less than 10 µM.
Work on `Fc1ccc2c3c([nH]c2c1)CCN(c1ccc(N2CCOCC2)nc1)C3` [Example 79] yielded an EC50 of less than 10 µM.
`Fc1ccc2c3c([nH]c2c1)CCN(c1ncc2nc(N4CCOCC4)sc2n1)C3` [Example 105f] showed an EC50 of less than 10 µM.
`COc1cc(N2CCc3c(c4cc(F)ccc4n3C)C2)ccc1O` [Example 151] showed an EC50 of less than 10 µM.
Compound `COCCN(C)c1nc2cc(N3CCc4[nH]c5cc(F)ccc5c4C3)ccc2o1` [Example 116] has an EC50 of less than 10 µM.
`Fc1ccc2[nH]c3c(c2c1)CN(c1cc2sc(N4CCOCC4)nc2cn1)CC3` [Example 90] showed an EC50 of less than 10 µM.
In the case of `COc1cc(N2CCc3[nH]c4cc(F)ccc4c3C2)ccn1` [Example 132], the EC50 is reported as less than 10 µM.
`C[C@H]1COCCN1c1nc2cc(N3CCc4[nH]c5cc(F)ccc5c4C3)ccc2o1` [Example 129] was tested, and the EC50 was less than 10 µM.
Compound `Fc1ccc2c3c([nH]c2c1)CCN(c1cnc2nc(N4CCOCC4)sc2c1)C3` [Example 73] has an EC50 of less than 10 µM.
For `Fc1ccc2[nH]c3c(c2c1)CN(c1cnc(N2C4CCC2COC4)cn1)CC3` [Example 105], the EC50 was less than 10 µM.
Work on `Fc1ccc2[nH]c3c(c2c1)CN(c1cnc(N2CCOCC2)cn1)CC3` [Example 100] yielded an EC50 of 25 to 50 µM.
Compound `COc1cc(N2CCc3c(c4cc(F)ccc4n3C)C2)ccn1` [Example 95] has an EC50 of less than 10 µM.
Compound `c1ccc2c3c([nH]c2c1)CCN(c1ccc(N2CCOCC2)cn1)C3` [Example 85] has an EC50 of less than 10 µM.
For `CC(C)(C)Nc1nc2cc(N3CCc4[nH]c5cc(F)ccc5c4C3)ccc2o1` [Example 143], the EC50 was less than 10 µM.
Work on `Fc1ccc2[nH]c3c(c2c1)CN(c1cccc2oc(N4CCOCC4)nc12)CC3` [Example 124] yielded an EC50 of less than 10 µM.
Compound `CN(C)c1nc2cc(N3CCc4[nH]c5ccc(F)cc5c4C3)ccc2s1` [Example 11] has an EC50 of less than 10 µM.
`N#Cc1ccc(N2CCc3[nH]c4cc(F)ccc4c3C2)cn1` [Example 123] was tested, and the EC50 was less than 10 µM.
With `CNc1nc2ccc(N3CCc4c(c5cc(OC)ccc5n4C)C3)cc2s1` [Example 41] the EC50 was less than 10 µM.
With `Cn1c2c(c3ccccc31)CN(c1ccc(N3CCOCC3)nc1)CC2` [Example 119] the EC50 was less than 10 µM.
`CC(C)Oc1cc(N2CCc3[nH]c4cc(F)ccc4c3C2)ccn1` [Example 139] was tested, and the EC50 was 10 to 25 µM.
`CCOc1ccc2[nH]c3c(c2c1)CN(c1ccc2oc(N4CCOCC4)nc2c1)CC3` [Example 136] showed an EC50 of 10 to 25 µM.
`COc1ccc2c(c1)c1c(n2C)CCN(c2ccc3oc(N(C)C)nc3c2)C1` [Example 96a] was tested, and the EC50 was 10 to 25 µM.
Compound `Fc1ccc2c3c([nH]c2c1)CCN(c1ccc(N2CC4CCC(C2)O4)nn1)C3` [Example 102] has an EC50 of 25 to 50 µM.
With `Cn1c2c(c3cc(F)ccc31)CN(c1ccc(N3CCOCC3)cn1)CC2` [Example 77] the EC50 was less than 10 µM.
In the case of `Fc1ccc2[nH]c3c(c2c1)CN(c1cnc2nc(N4CCOCC4)sc2c1)CC3` [Example 71], the EC50 is reported as less than 10 µM.
`Fc1ccc2[nH]c3c(c2c1)CN(c1ccc2nc(N4CCOCC4)ccc2n1)CC3` [Example 105a] gave an EC50 of less than 10 µM.
Compound `COCCNc1nc2cc(N3CCc4[nH]c5cc(F)ccc5c4C3)ccc2o1` [Example 118] has an EC50 of 10 to 25 µM.
With `Cn1c2c(c3ccccc31)CN(c1ccc(N3CCOCC3)cn1)CC2` [Example 84] the EC50 was less than 10 µM.
`COc1cc(N2CCc3[nH]c4cc(F)ccc4c3C2)ccc1F` [Example 152] showed an EC50 of less than 10 µM.
Work on `COc1cncc(N2CCc3c(c4cc(F)ccc4n3C)C2)c1` [Example 94] yielded an EC50 of less than 10 µM.
With `COc1ccc(N2CCc3c(c4cc(F)ccc4n3C)C2)cc1` [Example 148] the EC50 was less than 10 µM.
`Fc1ccc2c3c([nH]c2c1)CCN(c1ccc(N2CCOCC2)cn1)C3` [Example 78] gave an EC50 of less than 10 µM.
